Measurements reported in patent US8633243B2, “Forms of CDDO methyl ester” (priority 2007, dated 2014).
Marks after values point to notes of the source that are not given here.

What was measured:
[1] = Stress experiments (physical stability under temperature, humidity, grinding; XRPD after stress); type: physicochemical; conditions: for KF Result after stress: Karl Fischer water; for weight loss under stress: 3 days
Method: A solid sample was placed into a stainless steel milling rotor with a small metal ball. […] The sample was then ground at 30 Hz on a Retesh type MM220 mixermill for approximately 20 minutes. The resulting solids were isolated and analyzed.
A solid sample was placed into a stainless steel grinding jar with a grinding rod. The sample was then ground at 15 Hz on a SPEX Certiprep model 6750 cryomill for a set amount of time. The grinding jar was submerged in a bath of liquid nitrogen during the experiment. The solids were isolated and analyzed.
Solids were stressed under different temperature and/or relative humidity (RH) environments for a measured time period. Specific RH values were achieved by placing the samples inside sealed chambers containing saturated salt solutions or inside ESPEC temperature and humidity cabinets. The salt solutions were selected and prepared following an ASTM standard procedure. Samples were analyzed by XRPD immediately after removal from the stress environment. […]

[2] = Hygroscopicity (dynamic vapor sorption/desorption); type: physicochemical
Method: Moisture sorption/desorption data were collected on a VTI SGA-100 Vapor Sorption Analyzer. Sorption and desorption data were collected over a range of 5% to 95% relative humidity (RH) at 10% RH intervals under a nitrogen purge. Samples were not dried prior to analysis. Equilibrium criteria used for analysis were less than 0.010% weight change in 5 minutes, with a maximum equilibration time of 3 hours if the weight criterion was not met. Data were not corrected for the initial moisture content of the samples. Sodium chloride and polyvinypyrrolidine were used as calibration standards.

[3] = cynomolgus monkey, in vivo, po, 4.1 mg/kg
[4] = Phases 2 and 3: single oral administration of CDDO-methyl ester capsule formulations, concentrations by HPLC-MS/MS; type: in vivo, Cynomolgus monkeys, Macaca fascicularis; conditions: phases 2 and 3, PO capsule 10 mg/kg; compared with the micronized and nanocrystalline Form A formulations
Method: An aqueous suspension of nanocrystalline CDDO-Me was produced, starting from a sample of micronized Form A material. A Retsch® Planatory Ball Mill model PM 400, containing zirconia balls of 2 mm average size, was charged with 25 gm of micronized CDDO-Me (average particle size distribution of 6.1 uM), 5 gm of docusate sodium, 1 gm of Tween 80, and 68.3 gm of water. Grinding was initiated at approximately 400 RPM and was continued for 2 hours. A particle size distribution (PSD) determination using a laser light granulometer indicated an average PSD of 0.37 μM was obtained. To this thick suspension were added 1 gm of microcrystalline cellulose and 0.2 gm of […] gum, with brief mixing, and the suspension was stored refrigerated. […] The table below presents the quantitative composition of both formulations. […] The quantitative composition of each formulation appears below. […] Serial blood samples (approximately 1 mL) were removed from the femoral vein or artery of each animal and transferred into tubes containing K2-EDTA at each of the following time points (actual times were recorded): All samples were thoroughly mixed following collection and placed on wet ice, prior to being refrigerated at approximately 4° C. CDDO-methyl ester concentrations in blood were analysed by HPLC-MS/MS.

[5] = 25° C./75% RH, 28 d, micronized
[6] = 40° C./48% RH, 28 d, micronized
[7] = 60° C./23% RH, 28 d, micronized

| SMILES | XRPD RESULT after stress [1, 5] | KF Result after stress [1, 5] [%] | XRPD RESULT after stress [1, 6] | KF Result after stress [1, 6] | XRPD RESULT after stress [1, 7] | KF Result after stress [1, 7] [%] | XRPD RESULT after stress ([1]; 80° C./P2O5, 28 d, micronized) | KF Result after stress ([1]; 80° C./P2O5, 28 d, micronized) [%] | hygroscopicity [2] | AUC, Mean [3] [ng·h/mL] | AUC, Median [3] [ng·h/mL] | AUC, Range (min-max) [3] [ng·h/mL] | further results |
| --- | --- | --- | --- | --- | --- | --- | --- | --- | --- | --- | --- | --- | --- |
| COC(=O)[C@]12CCC(C)(C)C[C@H]1[C@H]1C(=O)C=C3[C@@]4(C)C=C(C#N)C(=O)C(C)(C)[C@@H]4CC[C@@]3(C)[C@]1(C)CC2 [FORM B PRODUCED BY ISOLATION FROM ETHYL ACETATE AND ETHANOL ] | Form B | 0.58 | Form B | 0.39% | ~50% Form A + | 0.02 | 100% Form A | 0.37 | – | – | – | – | form after stress testing (summary of Table 15) ([1]; 28 days of storage, Form A seen at 60° C. and above): formation of Form A |
| COC(=O)C12CCC(C)(C)CC1C1C(=O)C=C3C4(C)C=C(C#N)C(=O)C(C)(C)C4CCC3(C)C1(C)CC2 (stereo not shown) [Form A, methyl 2-cyano-3,12-dioxoleana-1,9(11)-dien-28-oate] | – | – | – | – | – | – | – | – | not hygroscopic | 40.4 | 37.4 | 21 to 60.4 | weight loss under stress ([1]; 25° C./60% RH): 3 days: 1.5% loss; XRPD RESULT after stress ([1]; 25° C./60% RH, 7 days): remained Form A; weight loss under stress ([1]; 40° C./75% RH): 3 days: 1.4% loss; XRPD RESULT after stress ([1]; 40° C./75% RH, 7 days): remained Form A; XRPD RESULT after stress ([1]; 20 min grind, dry (ball mill)): remained Form A; XRPD RESULT after stress ([1]; 20 min wet grind, water (ball mill)): remained Form A; MB / DVS weight change ([2]; 5% to 95% RH sorption/desorption): Negligible weight change throughout experiment; Post MB XRPD ([2]; material after DVS experiment): Form A |
| COC(=O)C12CCC(C)(C)CC1C1C(=O)C=C3C4(C)C=C(C#N)C(=O)C(C)(C)C4CCC3(C)C1(C)CC2 (stereo not shown) [Form B, methyl 2-cyano-3,12-dioxoleana-1,9(11)-dien-28-oate] | – | – | – | – | – | – | – | – | not hygroscopic | 177.2 | 175.0 | 158 to 228 | bioavailability, comparison of formulations [4]: significantly better bioavailability; XRPD RESULT after stress ([1]; 22° C./97% RH, 7 days): remained Form B; XRPD RESULT after stress ([1]; 40° C./75% RH, 8 days): remained Form B; XRPD RESULT after stress ([1]; 80° C./0% RH, ~24 hours): remained Form B; XRPD RESULT after stress ([1]; 195° C., 5 minutes, ambient RH (74% RH)): remained Form B; XRPD RESULT after stress ([1]; 200° C., 60 minutes, ambient RH (74% RH), min = minor): Form A plus minor Form B; form after cryogrinding ([1]; cryogrinding 1 hour): stable and does not change Form; % Form B over Form A (AUC), Mean [3]: 439%; % Form B over Form A (AUC), Median [3]: 523%; % Form B over Form A (AUC), Range (min-max) [3]: 262-723%; median exposure greater than the equivalent dose of Form A [3]: approximately 520% |
| COC(=O)[C@]12CCC(C)(C)C[C@H]1[C@H]1C(=O)C=C3[C@@]4(C)C=C(C#N)C(=O)C(C)(C)[C@@H]4CC[C@@]3(C)[C@]1(C)CC2 [FORM B PRODUCED VIA EXAMPLE 11 PROCEDURE] | Form B | 0.77 | Form B | 0.00^b | Form B | 0.04 | Form B | 1.1 | – | – | – | – | XRPD RESULT after stress ([1]; 25° C./75% RH, 14 d, micronized): Form B; XRPD RESULT after stress ([1]; 80° C./P2O5, 14 d, micronized): Form B |
